From patent US12433861B2, “Compositions and methods for treating reperfusion injury or hemorrhage after recanalization therapy” (GNT Pharma Co., Ltd., priority 2020, dated 2025)
Entries after “also recorded” stand apart in the source; their conditions may differ.

Experiments:
ischemic stroke patients = settings: human, in vivo, 5 days
Method: NMDA receptor antagonists can cause adverse events in ischemic stroke patients.
(§1) The ENIS trial was to examine efficacy as well as safety of the intravenous infusions of nelonemdazK for acute ischemic stroke patients (35-80 years old) receiving at least one kind of thrombolytic drugs including rtPA or urokinase within 8 hours of onset. A total of 238 patients were enrolled for the ENIS trial and allocated randomly in a double-blinded manner to one of 4 groups for the intravenous infusions of test drugs as follows: (Group A) placebo [0.9% normal saline], (Group B) 2,750 mg nelonemdazK for 5 days [500 mg for 1st infusion followed by 2nd-10th infusions approximately at 12 h intervals (250 mg for each infusion)], (Group C) 5,250 mg nelonemdazK for 5 days [750 mg for 1st infusion followed by 2nd-10th infusions approximately at 12 h intervals (500 mg for each)], and (Group D) 6,000 mg nelonemdazK for 5 days [1500 mg for 1st infusion followed by 2nd-10th infusions approximately at 12 h intervals (500 mg for each)]. Acute ischemic stroke patients due to occlusion in internal carotid artery system within 8 hours of onset were enrolled. Patients with The National Institutes of Health Stroke Scale (NIHSS; range 0-42, with higher scores indicating greater stroke severity) scores of 4 to 22 and limb weakness including motor arm or motor leg score≥2 of NIHSS were included. All the patients received at least one kind of thrombolytic therapy before treatment of any study drug.

adult rats = settings: rat, in vivo, iv, 200 mg/kg
[1] = tested on: acute ischemic stroke patients; test: SONIC phase II trial: acute ischemic stroke patients receiving endovascular thrombectomy with or without rt-PA; format: in vivo, human; settings: for ratio of mRS 0-2 or 0: vs placebo, potassium salt
Method: The SONIC trial was to examine efficacy and safety of the intravenous infusions of nelonemdazK for acute ischemic stroke patients (adults≥19) receiving endovascular thrombectomy with or without rt-PA within 8 hours of onset as described (Hong et al., 2018). A total of 209 patients were enrolled for the SONIC trial and allocated randomly in a double-blinded manner to one of 3 groups for the intravenous infusions of test drugs as follows: (Group A) placebo [0.9% normal saline], (Group B) 2,750 mg nelonemdazK for 5 days [500 mg for 1st infusion followed by 2nd-10th infusions approximately at 12 h intervals (250 mg for each infusion)], and (Group C) 5,250 mg nelonemdazK for 5 days [750 mg for 1st infusion followed by 2nd-10th infusions approximately at 12 h intervals (500 mg for each)].
Acute ischemic stroke patients due to occlusion in carotid internal carotid artery system within 8 hours of onset were enrolled. Enrolled patients presented the National Institutes of Health Stroke Scale (NIHSS: range 0-42, with higher scores indicating greater stroke severity) scores and Alberta stroke program early CT score (ASPECTS: a 10-point quantitative topographic CT scan score used in patients with middle cerebral artery (MCA) stroke, with lower scores indicating larger cerebral infarction)≥6.
For statistical analysis, Cochran-Mantel-Haenszel (CMH) chi-square test was conducted to compare distribution and ratio of mRS scores for each group at 1, 4, and 12 weeks after drug treatment. Ordinal logistic regression was applied with multivariate analysis controlling confounding variables that may cause difference between the groups in participating institutions and baseline scores. In addition, generalized estimating equation (GEE) analysis was conducted to compare the changes between groups in mRS scores measured at 1, 4, and 12 weeks after drug treatment. For the analysis of the Barthel Index score and adverse events, chi-square test or Fisher exact test was conducted to compare difference between groups at 1, 4, and 12 weeks after drug treatment.
Acute ischemic stroke patients who presented the baseline NIHSS score≥8 and the mRS distribution of 2-5 were enrolled for the SONIC trial. Out of a total of 209 patients, 152 patients successfully completed procedures including drug treatment for 5 days and scheduled analysis over 12 weeks after drug treatment according to the clinical protocol approved by Korea Ministry of Food and Drug Safety. […] The shift analysis implies that administration of nelonemdazK reduces disability in acute stroke patients treated with endovascular thrombectomy.

healthy volunteers = settings: human, in vivo
From the text: NMDA receptor antagonists were reported to produce serious side effects in healthy humans.

[2] = tested on: acute ischemic stroke patients; test: ENIS phase II trial: acute ischemic stroke patients receiving a thrombolytic drug; format: in vivo, human; settings: for good recovery ratio (patients with NIHSS score of 0-1 or decrease of NIHSS score≥4): 14 days; for ratio of mRS 0 (no symptoms at all): 6,000 mg
Method: as §1
The beneficial effects of nelonemdazK were further observed by analyzing “the ratio of patients with NIHSS score of 0-1 or decrease of NIHSS score≥4 (=the good recovery ratio)” at 14 days after drug treatment. […] This implies that the beneficial effects of nelonemdazK are better for moderate to severe ([…]) ischemic stroke patients than mild (NIHSS score≤5) patients.

[3] = tested on: mice treated with rt-PA after embolic stroke; test: Embolic stroke in mice treated with rt-PA: hemorrhage and brain injury at 24 h; format: in vivo; settings: 10 mg/kg rt-PA plus nelonemdazK IV at 4.5 hours after embolic stroke, analyzed at 24 hours
Method: Embolic stroke was induced by injection of blood clot into the right internal carotid artery of mice. Animals received intravenous administration of saline, 10 mg/kg rt-PA, or 10 mg/kg rt-PA plus nelonemdazK through femoral vein at 4.5 hours after embolic stroke. rt-PA was dissolved in water and injected over 20 min. NelonemdazK was dissolved in saline and injected over 5 min immediately after rt-PA infusion. Hemorrhage and brain injury were analyzed 24 hours after embolic stroke.

O=C([O-])c1cc(NCc2c(F)c(F)c(C(F)(F)F)c(F)c2F)ccc1O.[K+] [nelonemdazK, 2-Hydroxy-5-(2,3,5,6-tetrafluoro-4-trifluoromethylbenzylamino)benzoic acid potassium salt]
% of subjects showing abnormal behavior: Agitation (ischemic stroke patients): 2%
% of subjects showing abnormal behavior: Confusion (ischemic stroke patients): 0 (0%)
% of subjects showing abnormal behavior: Delirium (ischemic stroke patients): 0 (0%)
% of subjects showing abnormal behavior: Hallucination (ischemic stroke patients): 0 (0%)
% of subjects showing abnormal behavior: Paranoia (ischemic stroke patients): 0 (0%)
% of subjects showing abnormal behavior: Stupor (ischemic stroke patients): 1 (1%)
Number of subjects showing abnormal behavior: Agitation (ischemic stroke patients): 4
Number of subjects showing abnormal behavior: Confusion (ischemic stroke patients): 0 (0%)
Number of subjects showing abnormal behavior: Delirium (ischemic stroke patients): 0 (0%)
Number of subjects showing abnormal behavior: Hallucination (ischemic stroke patients): 0 (0%)
Number of subjects showing abnormal behavior: Paranoia (ischemic stroke patients): 0 (0%)
Number of subjects showing abnormal behavior: Stupor (ischemic stroke patients): 1 (1%)
neuronal injury (adult rats): not observed
ratio of mRS 0 ([1]; 1 week, high dose (5,250 mg) (placebo 2.04%, p=0.01)): 16.67%
ratio of mRS 0 ([1]; 1 week, low dose (2,750 mg) (placebo 2.04%, p=0.04)): 12.96%
ratio of mRS 0 ([1]; 4 weeks, high dose (5,250 mg) (placebo 6.12%, p=0.007)): 26.67%
ratio of mRS 0 ([1]; 4 weeks, low dose (2,750 mg) (placebo 6.12%, p=0.04)): 20%
ratio of mRS 0 ([1]; 12 weeks, high dose (5,250 mg) (placebo 8.16%, p=0.004)): 31.25%
ratio of patients with Barthel Index score higher than 90 ([1]; 12 weeks, high dose (placebo 41.86%, p<0.05)): 64.44%
ratio of mRS 0 ([1]; 12 weeks, low dose (2,750 mg) (placebo 8.16%, p=0.03)): 23.64%
ratio of patients with Barthel Index score higher than 90 ([1]; 12 weeks, low dose (placebo 41.86%)): 54.72%
drug-related adverse events ([1]; IV up to 5,250 mg for 5 days, 12 weeks follow-up): no drug-related adverse events
ratio of mRS 0-2 or 0 ([1]; high dose (5,250 mg, N=48), over 12 weeks): further increased; also recorded: increases
ratio of mRS 0-2 or 0 ([1]; low dose (2,750 mg, N=55), over 12 weeks): further increased; also recorded: increases
occurrence of adverse events and serious adverse events vs placebo ([1]; over 12 weeks): no difference
mortality rate ([1]; over 12 weeks, high dose group (N=67) (placebo 8.57%)): 4.48%
mortality rate ([1]; over 12 weeks, low dose group (N=71) (placebo 8.57%)): 4.23%
Number of subjects showing abnormal behavior: Agitation (healthy volunteers): 0
Number of subjects showing abnormal behavior: Catatonia (healthy volunteers): 0
Number of subjects showing abnormal behavior: Confusion (healthy volunteers): 0
Number of subjects showing abnormal behavior: Hallucination (healthy volunteers): 0
Number of subjects showing abnormal behavior: Paranoia (healthy volunteers): 0
percentage of mRS 0-2 (functional independence) ([2]; 6,000 mg for 5 days, 14, 30, and 90 days, baseline NIHSS 6-24, vs placebo, potassium salt): increases
good recovery ratio (patients with NIHSS score of 0-1 or decrease of NIHSS score≥4) ([2]; 6,000 mg (N=9), baseline NIHSS 9-24 (placebo 20%, p=0.022)): 50%
good recovery ratio (patients with NIHSS score of 0-1 or decrease of NIHSS score≥4) ([2]; 6,000 mg (N=36), baseline NIHSS 6-24 (placebo 25.53%, p=0.106)): 41.67%
ratio of mRS 0 (no symptoms at all) ([2]; at 14 days, baseline NIHSS 6-24 (placebo 12%)): 25%
ratio of mRS 0 (no symptoms at all) ([2]; at 30 days, baseline NIHSS 6-24 (placebo 16%)): 34%
ratio of mRS 0 (no symptoms at all) ([2]; at 90 days, baseline NIHSS 6-24 (placebo 26%)): 45%
levels of hemoglobin in the ischemic brain region [3]: significantly reduced
hemorrhage / hemorrhagic transformation in the ischemic brain region ([3]; potassium salt, 10 mg/kg): significantly reduced; also recorded: prevents hemorrhagic transformation
